This passage reports IC50 results from ChEMBL document CHEMBL1134400, “Short peptides with induced beta-turn inhibit the interaction between HIV-1 gp120 and CD4” (J Med Chem, 2001).

Residues, ends and D or L forms follow the SMILES beside them.

For the assay, the system named is Human immunodeficiency virus 1. The experiment in a line: Inhibitory activity against interaction between HIV-1 gp120 and CD4. Type of assay: functional.
Turning to `CC(C)C[C@H](NC(=O)[C@H](CC(=O)O)NC(=O)[C@H](Cc1ccccc1)NC(=O)[C@H](CO)NC(=O)[C@@H]1CCCN1C(=O)[C@H](CCC(N)=O)NC(=O)[C@@H](N)CS)C(=O)N[C@@H](CCC(N)=O)C(=O)N[C@@H](CS)C(=O)O` (H-CQPSFDLQC-OH), half-maximal inhibition (IC50) required 1 µM.

For the compound H-ARQPSFDLQCGF-OH, 50 µM corresponded to half-maximal inhibition (IC50).

As for H-PSFDLQ-OH, 6 µM corresponded to half-maximal inhibition (IC50).
